One block for each compound: values may come before it.
Assays:
[1] = target: T1, Histone deacetylase 1 (Homo sapiens, UniProt Q13547); test: Inhibition of C-terminal His-tag and C-terminal FLAG-tagged full length human HDAC1 expressed in baculovirus expression system using AMC-labeled RHKKAc as substrate by fluorescence method
[2] = target: T2, Protein deacetylase HDAC6 (Homo sapiens, UniProt Q9UBN7); test: Inhibition of recombinant N-terminal GST-tagged full length human HDAC6 expressed in baculovirus expression system in Sf9 insect cells using AMC-labeled RHKKAc as substrate by fluorescence method
T2 sequence (Q9UBN7 whole entry): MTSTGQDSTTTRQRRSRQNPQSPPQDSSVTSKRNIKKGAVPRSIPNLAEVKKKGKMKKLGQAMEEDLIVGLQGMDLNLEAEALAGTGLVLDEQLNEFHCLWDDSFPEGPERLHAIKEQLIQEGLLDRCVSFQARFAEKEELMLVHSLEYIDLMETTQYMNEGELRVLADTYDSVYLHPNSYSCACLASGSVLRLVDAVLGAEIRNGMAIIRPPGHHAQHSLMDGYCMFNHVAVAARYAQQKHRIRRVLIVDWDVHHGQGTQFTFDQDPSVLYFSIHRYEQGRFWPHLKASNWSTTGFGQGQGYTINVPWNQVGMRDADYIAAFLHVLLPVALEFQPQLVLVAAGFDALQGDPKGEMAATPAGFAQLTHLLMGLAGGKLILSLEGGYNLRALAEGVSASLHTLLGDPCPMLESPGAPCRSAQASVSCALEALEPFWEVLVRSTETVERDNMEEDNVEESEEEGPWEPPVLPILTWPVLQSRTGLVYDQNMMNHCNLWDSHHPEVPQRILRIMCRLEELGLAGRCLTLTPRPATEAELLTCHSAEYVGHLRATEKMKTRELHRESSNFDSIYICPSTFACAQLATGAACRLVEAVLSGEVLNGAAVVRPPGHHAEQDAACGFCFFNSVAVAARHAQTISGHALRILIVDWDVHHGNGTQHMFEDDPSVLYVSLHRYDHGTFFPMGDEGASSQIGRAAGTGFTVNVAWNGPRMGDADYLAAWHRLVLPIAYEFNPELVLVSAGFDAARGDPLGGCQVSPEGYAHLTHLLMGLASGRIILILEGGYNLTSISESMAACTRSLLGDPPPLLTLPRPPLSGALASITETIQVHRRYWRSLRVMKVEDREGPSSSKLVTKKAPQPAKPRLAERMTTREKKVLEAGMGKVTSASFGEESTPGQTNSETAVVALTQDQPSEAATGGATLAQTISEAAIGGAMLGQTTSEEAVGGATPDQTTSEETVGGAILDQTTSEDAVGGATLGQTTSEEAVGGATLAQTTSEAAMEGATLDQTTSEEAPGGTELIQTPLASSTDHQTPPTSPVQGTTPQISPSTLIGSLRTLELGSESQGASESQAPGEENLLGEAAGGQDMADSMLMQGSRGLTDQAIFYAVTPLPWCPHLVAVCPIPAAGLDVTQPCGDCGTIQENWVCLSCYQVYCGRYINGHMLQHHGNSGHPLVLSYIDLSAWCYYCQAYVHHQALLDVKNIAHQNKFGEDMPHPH

[3] = target: T3, Histone deacetylase 7 (Homo sapiens, UniProt Q8WUI4); test: Inhibition of HDAC7 (unknown origin)
T3 sequence (Q8WUI4 whole entry): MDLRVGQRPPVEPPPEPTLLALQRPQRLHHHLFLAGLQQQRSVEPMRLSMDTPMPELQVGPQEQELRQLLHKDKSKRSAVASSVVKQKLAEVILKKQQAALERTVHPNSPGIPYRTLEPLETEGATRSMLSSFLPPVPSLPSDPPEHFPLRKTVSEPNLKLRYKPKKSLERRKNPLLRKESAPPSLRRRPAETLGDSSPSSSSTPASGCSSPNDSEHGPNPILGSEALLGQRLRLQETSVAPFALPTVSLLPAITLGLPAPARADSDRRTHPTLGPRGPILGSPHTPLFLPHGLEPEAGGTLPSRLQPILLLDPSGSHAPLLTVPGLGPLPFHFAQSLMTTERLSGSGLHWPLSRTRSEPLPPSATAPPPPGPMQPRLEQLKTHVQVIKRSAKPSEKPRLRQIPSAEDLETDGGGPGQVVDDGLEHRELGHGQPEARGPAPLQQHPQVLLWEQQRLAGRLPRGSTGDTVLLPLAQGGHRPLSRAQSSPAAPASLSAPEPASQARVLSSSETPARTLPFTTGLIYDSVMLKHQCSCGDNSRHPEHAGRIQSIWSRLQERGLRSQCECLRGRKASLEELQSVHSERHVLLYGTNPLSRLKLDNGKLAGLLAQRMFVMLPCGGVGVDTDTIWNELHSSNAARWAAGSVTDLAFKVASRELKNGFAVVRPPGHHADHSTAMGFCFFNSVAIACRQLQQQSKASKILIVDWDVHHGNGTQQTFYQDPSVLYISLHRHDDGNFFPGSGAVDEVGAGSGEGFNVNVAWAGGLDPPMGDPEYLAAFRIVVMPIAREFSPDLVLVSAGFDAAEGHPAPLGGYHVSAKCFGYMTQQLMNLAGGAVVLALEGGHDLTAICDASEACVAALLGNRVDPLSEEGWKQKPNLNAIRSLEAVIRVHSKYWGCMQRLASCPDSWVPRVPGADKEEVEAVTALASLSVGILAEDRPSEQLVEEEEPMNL

[4] = target: T4, Histone deacetylase 3 (Homo sapiens, UniProt O15379); test: Inhibition of HDAC3 (unknown origin)
T4 sequence (O15379 whole entry): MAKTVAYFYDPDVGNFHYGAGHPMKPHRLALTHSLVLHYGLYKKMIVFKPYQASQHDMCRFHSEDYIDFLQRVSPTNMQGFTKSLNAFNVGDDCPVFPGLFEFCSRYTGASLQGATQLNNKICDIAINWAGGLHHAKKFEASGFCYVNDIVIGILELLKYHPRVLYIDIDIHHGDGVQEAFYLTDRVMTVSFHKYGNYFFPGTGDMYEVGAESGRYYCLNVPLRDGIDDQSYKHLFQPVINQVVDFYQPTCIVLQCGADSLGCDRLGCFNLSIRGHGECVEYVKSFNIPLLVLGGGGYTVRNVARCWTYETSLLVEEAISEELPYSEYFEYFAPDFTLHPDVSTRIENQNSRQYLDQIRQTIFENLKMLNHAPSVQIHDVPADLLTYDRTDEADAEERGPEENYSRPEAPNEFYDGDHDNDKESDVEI

[5] = target: T1, Histone deacetylase 1; test: Inhibition of HDAC1 (unknown origin)
[6] = target: T4, Histone deacetylase 3; test: Inhibition of HDAC3 (unknown origin) by fluorescence assay
[7] = target: T5, Histone deacetylase 4 (Homo sapiens, UniProt P56524); test: Inhibition of HDAC4 (unknown origin) by fluorescence assay
T5 sequence (P56524 whole entry): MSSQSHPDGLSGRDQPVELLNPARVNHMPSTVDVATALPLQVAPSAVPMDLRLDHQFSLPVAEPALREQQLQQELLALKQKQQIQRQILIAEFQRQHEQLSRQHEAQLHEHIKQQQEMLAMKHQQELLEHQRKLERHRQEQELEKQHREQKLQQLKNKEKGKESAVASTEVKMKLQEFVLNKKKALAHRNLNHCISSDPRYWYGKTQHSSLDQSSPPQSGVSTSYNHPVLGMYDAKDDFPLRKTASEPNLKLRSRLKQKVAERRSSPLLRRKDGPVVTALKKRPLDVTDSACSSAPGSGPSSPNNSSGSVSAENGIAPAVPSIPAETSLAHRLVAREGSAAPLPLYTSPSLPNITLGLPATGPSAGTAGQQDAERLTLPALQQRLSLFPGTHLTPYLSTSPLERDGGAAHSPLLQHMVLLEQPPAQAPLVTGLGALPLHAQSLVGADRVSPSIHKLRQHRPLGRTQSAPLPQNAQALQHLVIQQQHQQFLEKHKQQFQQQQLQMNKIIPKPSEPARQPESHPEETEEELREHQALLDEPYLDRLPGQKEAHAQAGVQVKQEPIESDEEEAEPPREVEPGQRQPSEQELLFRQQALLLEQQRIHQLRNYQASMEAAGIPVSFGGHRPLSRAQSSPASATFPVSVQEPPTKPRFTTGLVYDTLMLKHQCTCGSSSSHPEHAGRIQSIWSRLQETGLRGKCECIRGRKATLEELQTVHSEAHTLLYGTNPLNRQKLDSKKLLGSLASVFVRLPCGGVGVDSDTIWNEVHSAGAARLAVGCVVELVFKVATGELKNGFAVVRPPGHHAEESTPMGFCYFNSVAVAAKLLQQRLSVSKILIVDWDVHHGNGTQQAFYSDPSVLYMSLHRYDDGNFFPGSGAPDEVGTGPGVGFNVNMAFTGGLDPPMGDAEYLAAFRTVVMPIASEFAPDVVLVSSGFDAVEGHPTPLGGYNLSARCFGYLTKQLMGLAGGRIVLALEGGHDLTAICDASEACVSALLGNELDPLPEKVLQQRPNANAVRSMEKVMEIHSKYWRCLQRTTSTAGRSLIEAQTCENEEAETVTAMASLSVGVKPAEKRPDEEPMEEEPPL

[8] = target: T6, Histone deacetylase 2 (Homo sapiens, UniProt Q92769); test: Inhibition of HDAC2 (unknown origin) by fluorescence assay
T6 sequence (Q92769 whole entry): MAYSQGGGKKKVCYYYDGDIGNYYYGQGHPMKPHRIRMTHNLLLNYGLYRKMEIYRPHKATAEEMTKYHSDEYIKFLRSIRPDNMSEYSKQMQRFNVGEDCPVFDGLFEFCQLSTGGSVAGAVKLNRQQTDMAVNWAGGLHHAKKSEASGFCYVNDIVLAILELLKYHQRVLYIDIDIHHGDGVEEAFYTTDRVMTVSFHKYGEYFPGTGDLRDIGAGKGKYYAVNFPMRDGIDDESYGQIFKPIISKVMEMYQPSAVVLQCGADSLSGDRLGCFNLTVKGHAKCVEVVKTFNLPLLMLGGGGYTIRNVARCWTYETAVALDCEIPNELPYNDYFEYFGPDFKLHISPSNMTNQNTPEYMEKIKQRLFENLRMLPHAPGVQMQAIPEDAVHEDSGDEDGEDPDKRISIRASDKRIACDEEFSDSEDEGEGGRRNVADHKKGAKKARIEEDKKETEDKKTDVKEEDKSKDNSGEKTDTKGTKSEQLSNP

[9] = Inhibition of HDAC activity in human HeLa nuclear extract
[10] = target: T7, Histone deacetylase 8 (Homo sapiens, UniProt Q9BY41); test: Inhibition of HDAC8 (unknown origin) by fluorescence assay
T7 sequence (Q9BY41 whole entry): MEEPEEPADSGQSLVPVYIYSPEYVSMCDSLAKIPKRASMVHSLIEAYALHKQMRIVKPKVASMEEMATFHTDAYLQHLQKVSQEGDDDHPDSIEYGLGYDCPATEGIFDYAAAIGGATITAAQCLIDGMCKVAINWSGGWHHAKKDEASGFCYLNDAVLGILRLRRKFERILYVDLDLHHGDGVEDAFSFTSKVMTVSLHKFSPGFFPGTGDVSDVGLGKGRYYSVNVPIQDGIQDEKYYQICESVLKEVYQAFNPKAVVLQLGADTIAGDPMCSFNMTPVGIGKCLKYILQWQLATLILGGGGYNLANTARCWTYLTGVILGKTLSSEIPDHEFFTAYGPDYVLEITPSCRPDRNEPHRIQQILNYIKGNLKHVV

[11] = target: T1, Histone deacetylase 1; test: Inhibition of HDAC1 (unknown origin) by fluorescence assay
[12] = target: T2, Protein deacetylase HDAC6; test: Inhibition of HDAC6 (unknown origin) by fluorescence assay
[13] = target: T2, Protein deacetylase HDAC6; test: Inhibition of recombinant human HDAC6 using Boc-Lys(acetyl)-AMC as substrate after 1 hr by fluorescence assay
[14] = target: T7, Histone deacetylase 8; test: Inhibition of HDAC8 (unknown origin)
[15] = target: T2, Protein deacetylase HDAC6; test: Inhibition of HDAC6 (unknown origin)
[16] = target: T6, Histone deacetylase 2; test: Inhibition of HDAC2 (unknown origin)
[17] = target: T8, Histone deacetylase 5 (Homo sapiens, UniProt Q9UQL6); test: Inhibition of HDAC5 (unknown origin)
T8 sequence (Q9UQL6 whole entry): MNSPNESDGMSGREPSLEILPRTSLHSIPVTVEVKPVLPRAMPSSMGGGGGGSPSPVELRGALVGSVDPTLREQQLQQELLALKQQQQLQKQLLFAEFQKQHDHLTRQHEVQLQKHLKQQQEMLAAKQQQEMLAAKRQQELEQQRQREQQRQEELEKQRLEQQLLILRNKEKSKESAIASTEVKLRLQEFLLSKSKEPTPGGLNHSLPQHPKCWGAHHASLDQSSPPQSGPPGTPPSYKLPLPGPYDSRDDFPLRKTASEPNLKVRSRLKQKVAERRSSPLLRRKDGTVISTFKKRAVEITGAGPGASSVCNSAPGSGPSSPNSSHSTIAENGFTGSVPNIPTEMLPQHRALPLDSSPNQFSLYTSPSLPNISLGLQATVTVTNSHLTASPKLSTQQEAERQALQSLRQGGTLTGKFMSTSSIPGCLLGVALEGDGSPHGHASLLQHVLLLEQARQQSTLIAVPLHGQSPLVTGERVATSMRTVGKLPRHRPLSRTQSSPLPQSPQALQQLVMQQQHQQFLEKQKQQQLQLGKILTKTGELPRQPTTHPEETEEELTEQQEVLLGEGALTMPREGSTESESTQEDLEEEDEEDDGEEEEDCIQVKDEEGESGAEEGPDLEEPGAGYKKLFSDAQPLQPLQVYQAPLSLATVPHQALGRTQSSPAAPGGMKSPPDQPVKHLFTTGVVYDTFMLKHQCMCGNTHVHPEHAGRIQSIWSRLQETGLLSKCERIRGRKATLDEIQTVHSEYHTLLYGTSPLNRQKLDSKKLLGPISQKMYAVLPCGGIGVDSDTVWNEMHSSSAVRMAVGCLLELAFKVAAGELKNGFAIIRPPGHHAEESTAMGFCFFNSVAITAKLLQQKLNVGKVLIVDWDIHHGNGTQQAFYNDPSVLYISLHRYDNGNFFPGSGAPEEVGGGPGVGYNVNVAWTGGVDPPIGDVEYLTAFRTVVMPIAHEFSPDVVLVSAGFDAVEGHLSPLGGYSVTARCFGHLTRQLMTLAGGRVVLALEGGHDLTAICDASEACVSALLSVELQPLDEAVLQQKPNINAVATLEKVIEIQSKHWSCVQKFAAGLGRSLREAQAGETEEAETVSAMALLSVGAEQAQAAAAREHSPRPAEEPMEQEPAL

[18] = target: T5, Histone deacetylase 4; test: Inhibition of HDAC4 (unknown origin)
[19] = target: T9, Histone deacetylase 11 (Homo sapiens, UniProt Q96DB2); test: Inhibition of HDAC11 (unknown origin)
T9 sequence (Q96DB2 whole entry): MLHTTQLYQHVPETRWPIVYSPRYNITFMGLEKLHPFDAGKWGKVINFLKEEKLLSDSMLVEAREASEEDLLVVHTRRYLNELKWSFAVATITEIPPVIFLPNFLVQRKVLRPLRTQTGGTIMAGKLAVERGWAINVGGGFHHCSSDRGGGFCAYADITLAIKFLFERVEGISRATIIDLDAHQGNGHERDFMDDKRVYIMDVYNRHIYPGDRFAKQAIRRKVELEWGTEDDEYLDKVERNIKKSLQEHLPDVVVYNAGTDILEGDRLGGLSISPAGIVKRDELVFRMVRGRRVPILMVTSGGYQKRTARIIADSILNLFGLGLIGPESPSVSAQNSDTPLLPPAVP

[20] = target: T10, Polyamine deacetylase HDAC10 (Homo sapiens, UniProt Q969S8); test: Inhibition of HDAC10 (unknown origin)
T10 sequence (Q969S8 whole entry): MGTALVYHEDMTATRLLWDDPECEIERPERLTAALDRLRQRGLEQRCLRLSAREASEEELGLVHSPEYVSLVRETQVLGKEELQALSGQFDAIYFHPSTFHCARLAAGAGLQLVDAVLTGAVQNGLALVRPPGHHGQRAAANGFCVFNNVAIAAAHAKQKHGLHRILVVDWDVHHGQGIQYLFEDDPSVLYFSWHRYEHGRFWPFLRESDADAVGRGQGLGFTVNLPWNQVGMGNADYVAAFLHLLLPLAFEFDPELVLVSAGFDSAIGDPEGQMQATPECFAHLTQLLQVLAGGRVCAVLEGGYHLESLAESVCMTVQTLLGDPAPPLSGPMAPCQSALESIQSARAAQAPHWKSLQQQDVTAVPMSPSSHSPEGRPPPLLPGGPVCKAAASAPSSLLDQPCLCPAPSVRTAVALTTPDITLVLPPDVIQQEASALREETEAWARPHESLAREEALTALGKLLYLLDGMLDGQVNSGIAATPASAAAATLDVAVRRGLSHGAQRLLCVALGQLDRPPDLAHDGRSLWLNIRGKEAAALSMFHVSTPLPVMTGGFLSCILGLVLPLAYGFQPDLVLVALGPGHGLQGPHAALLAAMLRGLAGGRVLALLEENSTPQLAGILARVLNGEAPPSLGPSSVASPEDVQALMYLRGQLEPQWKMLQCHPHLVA

[21] = target: Histone deacetylase 9 (Homo sapiens, UniProt Q9UKV0); test: Inhibition of HDAC9 (unknown origin)
Sequence of Histone deacetylase 9 (Q9UKV0 whole entry): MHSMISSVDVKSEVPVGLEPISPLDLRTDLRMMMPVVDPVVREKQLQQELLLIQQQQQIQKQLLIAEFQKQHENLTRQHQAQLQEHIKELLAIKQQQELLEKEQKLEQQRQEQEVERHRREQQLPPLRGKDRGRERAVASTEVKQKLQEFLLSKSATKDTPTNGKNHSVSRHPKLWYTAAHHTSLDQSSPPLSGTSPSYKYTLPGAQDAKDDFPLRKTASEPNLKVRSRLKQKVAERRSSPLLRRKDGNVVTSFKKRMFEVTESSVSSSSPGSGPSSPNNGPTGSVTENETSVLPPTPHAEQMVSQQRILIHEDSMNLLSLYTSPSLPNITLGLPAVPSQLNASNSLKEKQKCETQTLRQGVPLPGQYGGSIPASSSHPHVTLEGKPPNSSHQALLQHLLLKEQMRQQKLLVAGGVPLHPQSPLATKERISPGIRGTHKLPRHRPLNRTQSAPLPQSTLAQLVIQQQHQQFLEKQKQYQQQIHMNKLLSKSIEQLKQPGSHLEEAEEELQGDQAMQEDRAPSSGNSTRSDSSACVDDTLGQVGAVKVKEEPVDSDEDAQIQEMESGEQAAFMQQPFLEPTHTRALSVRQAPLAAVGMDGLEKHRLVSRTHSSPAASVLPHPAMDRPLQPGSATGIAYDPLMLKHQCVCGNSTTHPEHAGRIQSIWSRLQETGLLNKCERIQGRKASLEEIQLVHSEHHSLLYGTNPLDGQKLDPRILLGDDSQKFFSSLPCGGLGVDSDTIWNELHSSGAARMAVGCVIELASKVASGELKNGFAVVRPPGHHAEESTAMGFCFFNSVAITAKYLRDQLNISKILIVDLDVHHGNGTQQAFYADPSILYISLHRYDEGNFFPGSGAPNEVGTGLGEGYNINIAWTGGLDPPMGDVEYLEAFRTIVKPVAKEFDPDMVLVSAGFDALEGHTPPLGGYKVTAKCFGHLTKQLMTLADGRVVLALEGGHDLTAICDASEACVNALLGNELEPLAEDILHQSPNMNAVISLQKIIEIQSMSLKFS

[22] = target: T8, Histone deacetylase 5; test: Inhibition of human HDAC5 using RHKKAc as substrate by fluorescence assay
[23] = target: T1, Histone deacetylase 1; test: Inhibition of human HDAC1 using RHKKAc as substrate by fluorescence assay
[24] = target: T2, Protein deacetylase HDAC6; test: Inhibition of human HDAC6 using RHKKAc as substrate by fluorescence assay
[25] = target: T10, Polyamine deacetylase HDAC10; test: Inhibition of human HDAC10 using RHKKAc as substrate by fluorescence assay
[26] = target: T7, Histone deacetylase 8; test: Inhibition of human HDAC8 using RHKKAc as substrate by fluorescence assay
[27] = target: T5, Histone deacetylase 4; test: Inhibition of human HDAC4 using RHKKAc as substrate by fluorescence assay
[28] = target: T6, Histone deacetylase 2; test: Inhibition of human HDAC2 using RHKKAc as substrate by fluorescence assay

T1 sequence (Q13547 whole entry): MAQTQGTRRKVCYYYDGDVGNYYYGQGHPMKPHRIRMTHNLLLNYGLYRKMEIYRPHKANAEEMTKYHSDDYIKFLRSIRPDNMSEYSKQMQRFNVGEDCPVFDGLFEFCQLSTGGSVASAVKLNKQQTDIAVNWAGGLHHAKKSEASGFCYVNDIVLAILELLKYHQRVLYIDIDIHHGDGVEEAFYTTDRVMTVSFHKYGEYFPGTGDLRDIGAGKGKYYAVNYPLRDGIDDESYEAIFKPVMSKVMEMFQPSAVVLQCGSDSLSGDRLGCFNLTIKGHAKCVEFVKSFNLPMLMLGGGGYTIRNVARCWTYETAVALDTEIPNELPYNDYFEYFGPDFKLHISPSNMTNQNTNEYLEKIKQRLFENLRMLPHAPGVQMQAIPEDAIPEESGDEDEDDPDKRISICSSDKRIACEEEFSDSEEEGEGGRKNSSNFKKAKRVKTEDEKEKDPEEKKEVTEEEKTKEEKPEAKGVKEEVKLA

Compound: O=C(/C=C/c1cccc(C(=O)NO)c1)NO
- IC50 [4]: 0.07 µM
- IC50 [5]: 0.01 µM

Compound: O=C(NO)c1cccc(-c2csc(CSc3ccccc3)n2)c1
- IC50 [6]: 12 µM
- IC50 [7]: > 100 µM
- IC50 [8]: > 100 µM
- IC50 [9]: > 100 µM
- IC50 [10]: 0.15 µM
- IC50 [11]: > 100 µM
- IC50 [12]: 14 µM

Compound: O=C(NO)c1ccc(Cn2c3c(c4ccccc42)S(=O)(=O)CC3)cc1
- IC50 [14]: 1.9 µM
- IC50 [15]: 0.008 µM
- IC50 [16]: > 30 µM
- IC50 [17]: 0.4 µM
- IC50 [18]: 0.6 µM
- IC50 [19]: 17 µM
- IC50 [20]: 13 µM
- IC50 [5]: 12 µM
- IC50 [21]: 0.2 µM

Compound: CN1C(=O)C2CN(Cc3c2c2ccccc2n3Cc2ccc(C(=O)NO)cc2)C1=O (stereo unspecified)
- IC50 [22]: 1.57 µM
- IC50 [23]: 3.62 µM
- IC50 [24]: 0.004 µM
- IC50 [25]: 10.5 µM
- IC50 [26]: 0.25 µM
- IC50 [27]: 3.82 µM
- IC50 [28]: 7.45 µM

More lines, now with the values ahead:

- IC50 [1]: ≥ 10 µM
- IC50 [2]: ≤ 0.5 µM
Compound: Cc1noc(C)c1-c1ccnc(N(Cc2ccc(C(=O)NO)cc2)c2cnccn2)c1

- IC50 [3]: > 10 µM
- IC50 [4]: > 10 µM
- IC50 [5]: > 10 µM
Compound: O=C(NO)c1ccc(NCc2csc3ccc(Br)cc23)cc1

- IC50 [13]: 0.006 µM
Compound: O=C(Cc1ccc(C(=O)NO)cc1)NC1=CC(=O)c2ccccc2C1=O

Source: ChEMBL document CHEMBL4033665, “Synthesis and applications of benzohydroxamic acid-based histone deacetylase inhibitors” (Eur J Med Chem, 2017)
